The source of these data is patent publication US20240132559A1, “COMPOSITIONS AND METHODS FOR MODULATING MYC EXPRESSION” (FLAGSHIP PIONEERING INNOVATIONS V, INC., priority 2020, published 2024).

Series [1] has as its system A549 cells. Kind of series: A549 viability with ZF9-MQ1 and small molecule inhibitors, alone and combined. In kind it is cell-based, human. To be noted: each agent separately.
The test system of series [2] is A549 cells. Kind of series: A549 cell viability, ZF9-MQ1 alone and with BET or MEK inhibitors (CellTiter-GLO). It counts as cell-based, human. Conditions: 72-hour incubation, single agent. Here is the method: This example evaluates the effect of ZF9-MQ1 construct on A549 cell viability when used in combination with varying concentrations of JQ1 inhibitor.
A549 cells were seeded at 4,000 cells per well in duplicate plates for cell viability analysis. The 96-well plates were treated in triplicate with GFP or ZF9-MQ1 loaded LNPs at 0.5 ug/mL or 1.0 μg/mL in combination with increasing concentrations of the BET inhibitor JQ1 (concentrations up to 6.25 uM) and incubated. Untreated cells and GFP treated cells were used as controls. After 72-hour incubation, one 96-well plate was lysed with CellTiter-GLO® and luminescence was quantified using the GloMax® Discovery plate reader.
This example evaluates the effect of ZF9-MQ1 construct on A549 cell viability when used in combination with varying concentrations of BET762 inhibitor.
(§1) A549 cells were seeded at 4,000 cells per well in duplicate plates for cell viability analysis. The 96-well plates were treated in triplicate with GFP or ZF9-MQ1 loaded LNPs at 0.5 μg/mL or 1.0 μg/mL in combination with increasing concentrations (concentrations up to 1.25 uM) of the BET inhibitor BET762 and incubated. Untreated cells and GFP treated cells were used as controls. After 72-hour incubation, one 96-well plate was lysed with CellTiter-GLO® and luminescence was quantified using the GloMax® Discovery plate reader.
This example evaluates the effect of ZF9-MQ1 construct on A549 cell viability when used in combination with varying concentrations of BET inhibitor, Birabresib.
as §1, with “0.625 uM for 0.5 μg/ml ZF9-MQ1 treated cells and up to 0.313 uM for 1.0 μg/ml ZF9-MQ1 treated cells)” for “1.25 uM)”, “Birabresib” for “BET762”
This example evaluates the effect of ZF9-MQ1 construct on A549 cell viability when used in combination with varying concentrations of MEK inhibitor, Trametinib.
A549 cells were seeded at 4,000 cells per well in duplicate plates for cell viability analysis. The 96-well plates were treated in triplicate with GFP or ZF9-MQ1 loaded LNPs at 0.5 μg/mL or 1.0 μg/mL in combination with increasing concentrations (concentrations up to 0.05 uM) of the MEK inhibitor Trametinib and incubated. […] After 72-hour incubation, one 96-well plate was lysed with CellTiter-GLO® and luminescence was quantified using the GloMax® Discovery plate reader.

The test system of a further series is SKHEP1 and Hep 3B cells. Kind of series: IC50 of sorafenib or JQ1 in combination with bi-cistronic ZF9-MQ1_ZF3-KRAB. To be noted: with bi-cistronic ZF9-MQ1_ZF3-KRAB at 0.6 and 0.1 ug/ml. In kind it is cell-based, human.
The next series deals with Hep 3B cells. Kind of series: JQ1 dose response viability with bi-cistronic ZF9-MQ1_ZF3-KRAB (CellTiter-GLO). It counts as cell-based. To be noted: Homo sapiens, Hep3B, 72 h. The text has this:
(§2) This example evaluates the efficacy of bi-cistronic ZF9-MQ1_ZF3-KRAB in combination with JQ1 (BET inhibitor) in multiple HCC cell lines. […] Later generation BET inhibitors are currently being evaluated in the clinic for hematologic indications; however, their toxicity profile have limited their use. Combination treatments that can increase the potency of BET inhibitors at reduced dose levels could improve BET inhibitor tolerability.
(§3) To evaluate potential synergy between bi-cistronic ZF9-MQ1_ZF3-KRAB and JQ1, Hep 3B or SK-HEP-1 cells were plated in 96 well plates at 10,000 cells per well. Cells were then treated with JQ1 with a dose range between 0.1 and 25 μM, with serial dilution of 1:2. Lipid mix carrying bi-cistronic ZF9-MQ1_ZF3-KRAB was then added to a set of the wells at a dose of 0.1 or 0.6 μg/mL. A set of cells was treated with JQ1 alone to use as control. Following 72-hour treatment, cells were lysed with the CellTiter-GLO® reagent and luminescence was quantified using the Glo Max. Relative cell viability was calculated by averaging the untreated values and dividing each experimental luciferase value by that average.
A general note: ATP-based viability assays read luminescence as a measure of living cells.

Another series relates to SK-HEP-1 cells. The description is as above. In kind it is cell-based. To be noted: Homo sapiens, SK-HEP1, 72 h, SKHEP-1, 72-hour.
Description: as §2, §3

The subject of the next series is MYC. The series can be described thus: MYC mRNA expression by qPCR in human lung cancer cell lines after LNP transfection. In kind it is cell-based. Here is the method:
Viability was measured using the CellTiter-GLO® assay kit from Promega according to manufacturer's protocol. RNA was isolated from three biological replicates, using the Rneasy® Plus 96-well Kit (Qiagen) following the Manufacturer's protocol. RNA samples were retrotranscribed to cDNA using LunaScript® RT SuperMix Kit (NEB) and analyzed by quantitative PCR (qPCR) (in technical triplicates) using a MYC specific TaqMan™ primer/probe set assay with the TaqMan™ Fast Advanced Master Mix (Thermo Scientific). MYC expression was quantified relative to the expression of GAPDH reference genes using the ΔΔCt method, the untreated and dCas9(no-effector) samples were used as calibrators.
(§4) Guide RNAs (Table 13) were designed across the lung super-enhancer region and tested in combination with the KRAB repressor protein conjugated to an enzymatically dead CAS9. The effector mRNA and guide RNAs were co-delivered using LNP delivery with SSOP with mRNA delivery of GFP as a negative control. NCSLC cell line A549 were seeded in 96-well plates in growth media (10000 cells/well). LNP formulations (2.5 ug/ml) were then added to the cells to transfect the effector mRNA/guide RNA then incubated for 72 hours. RNA was isolated from three biological replicates, using the Rneasy® Plus 96-well Kit (Qiagen) following the Manufacture's protocol. RNA samples were retrotranscribed to cDNA using LunaScript® RT SuperMix Kit (NEB) and analyzed by quantitative PCR (qPCR) (in technical triplicates) using a MYC specific TaqMan™ primer/probe set assay with the TaqMan™ Fast Advanced Master Mix (Thermo Scientific). MYC expression was quantified relative to the expression of GAPDH reference genes using the ΔΔCt method, the untreated samples were used as calibrators.
as §4, with “GuideRNAs” for “Guide RNAs”, “MC3” for “SSOP”
Guide RNAs (GD-29833 and GD-29914) targeted to the MYC super-enhancer were tested in combination with repressor proteins including the histone methyltransferase EZH2 (alone or in conjunction with KRAB) and the DNA methyltransferase MQ1 conjugated to an enzymatically dead CAS9. The effector mRNA and guide RNAs were co-delivered using LNP delivery with SSOP with mRNA delivery of GFP as a negative control. NCSLC cell lines A549 or NCI-H2009 were seeded in 96-well plates in growth media (10000 cells/well). LNP formulations (2.5 ug/ml) were then added to the cells to transfect the effector mRNA/guide RNA then incubated for 72 hours. RNA was isolated from three biological replicates, using the Rneasy® Plus 96-well Kit (Qiagen) following the Manufacture's protocol. RNA samples were retrotranscribed to cDNA using LunaScript® RT SuperMix Kit (NEB) and analyzed by quantitative PCR (qPCR) (in technical triplicates) using a MYC specific TaqMan′ primer/probe set assay with the TaqMan™ Fast Advanced Master Mix (Thermo Scientific). MYC expression was quantified relative to the expression of GAPDH reference genes using the ΔΔCt method, the untreated samples were used as calibrators. […]
A general note: In qPCR the cycle at which signal appears reflects the starting amount.

Where [3] appears, read: bi-cistronic ZF9-MQ1_ZF3-KRAB 0 μg/ml.
Setting [4] is: bi-cistronic ZF9-MQ1_ZF3-KRAB 0.1 μg/ml.
The mark [5] stands for this setting: bi-cistronic ZF9-MQ1_ZF3-KRAB 0.6 μg/ml.
Where [6] appears, read: A549, guide delivered with KRAB or MQ1, 120 hours.
Setting [7] is: A549, guide delivered with dCAS9-KRAB effector mRNA, MC3 LNP 2.5 ug/ml, 72 hours.
[8] abbreviates: A549, guide delivered with dCAS9-KRAB effector mRNA, SSOP LNP 2.5 ug/ml, 72 hours.
[9] abbreviates: A549, guide delivered with dCas9 effectors EZH2, EZH2-KRAB and MQ1, 72 hours.
Where [10] appears, read: NCI-H2009, guide delivered with KRAB or MQ1, 120 hours.
Where [11] appears, read: NCI-H2009, guide delivered with dCas9 effectors EZH2, EZH2-KRAB and MQ1, 72 hours.

As for `CCNC(=O)C[C@@H]1N=C(c2ccc(Cl)cc2)c2cc(OC)ccc2-n2c(C)nnc21` [BET762], the “inhibition of A549 cell viability, single agent” value (shortened to “inhibition”) with A549 cells [1] is reported as “inhibited cell viability of A549 cells”. The “A549 cell viability, each agent separately” value with A549 cells [2] is “inhibited cell viability”.

Regarding `Cc1sc2c(c1C)C(c1ccc(Cl)cc1)=N[C@@H](CC(=O)OC(C)(C)C)c1nnc(C)n1-2` [JQ1], the “IC50 of JQ1” value with SKHEP1 and Hep 3B cells (Hep 3B) is “reduced”; with SKHEP1 and Hep 3B cells (SKHEP1), “reduced”. The “inhibition” value with A549 cells [1] is “inhibited cell viability of A549 cells”. Further, the “A549 cell viability, each agent separately” value in the series with A549 cells [2] is on record as “inhibited cell viability”. The IC50 (as a rule, the concentration needed to halve the response being measured) in the series with Hep 3B cells (setting [3]) was 6600 nM; in the series with Hep 3B cells (setting [4]), 600 nM; in the series with Hep 3B cells (setting [5]) it was 200 nM; in the series with SK-HEP-1 cells (setting [3]), greater than 25000 nM; in the series with SK-HEP-1 cells (setting [4]) it was 1900 nM; in the series on SK-HEP-1 cells (setting [5]), 1100 nM.

On to `Cc1sc2c(c1C)C(c1ccc(Cl)cc1)=N[C@@H](CC(=O)Nc1ccc(O)cc1)c1nnc(C)n1-2` [birabresib], for which, in the series with A549 cells [1], the “inhibition” value was “inhibited cell viability of A549 cells”. Moreover, the “A549 cell viability, each agent separately” value in the series with A549 cells [2] was “inhibited cell viability”.

Turning to `CC(=O)Nc1cccc(-n2c(=O)n(C3CC3)c(=O)c3c(Nc4ccc(I)cc4F)n(C)c(=O)c(C)c32)c1` [trametinib], the “inhibition” value in the series on A549 cells [1] is “inhibited cell viability of A549 cells”. Also, the “A549 cell viability, each agent separately” value in the series on A549 cells [2] is on record as “inhibited cell viability”.

Consider “GD-29833: guide RNA to MYC lung super-enhancer, SEQ ID NO: 96 (guide TGCCACTTCCCCACTAACCC; listed as DNA, chemistry not given here; listed as Homo sapiens)”, for which the “MYC mRNA down-regulation (in words)” value in the series on MYC (setting [6]) was “significantly downregulate MYC mRNA levels”; in the series with MYC (setting [7]), “effectively downregulate MYC mRNA levels”; in the series on MYC (setting [8]), “effectively downregulate MYC mRNA levels”; with MYC (setting [9]), “effectively downregulate MYC mRNA levels”; in the series on MYC (setting [10]), “significantly downregulate MYC mRNA levels”; in the series on MYC (setting [11]), “effectively downregulate MYC mRNA levels”.

Turning to “GD-29914: guide RNA to MYC lung super-enhancer, SEQ ID NO: 108 (guide CAGCACTCTCGCTGACCGCA; listed as DNA, chemistry not given here; listed as Homo sapiens)”, the “MYC mRNA down-regulation (in words)” value in the series on MYC (setting [6]) was “significantly downregulate MYC mRNA levels”; in the series with MYC (setting [7]), “effectively downregulate MYC mRNA levels”; with MYC (setting [8]), “effectively downregulate MYC mRNA levels”; in the series with MYC (setting [9]) it was “effectively downregulate MYC mRNA levels”; in the series on MYC (setting [10]), “significantly downregulate MYC mRNA levels”; in the series with MYC (setting [11]) it was “effectively downregulate MYC mRNA levels”.
